Test results: patent US10335409B2 (priority 2012, dated 2019)
pEC50, pKi: −log10 of the molar value. Read-outs that look alike come from different tables or passages of the source.

Columns and labels:
[1] = biological target: HCV NS3 protease domain genotype 1b (Hepatitis C virus genotype 1b (isolate Con1), UniProt Q9WMX2, E1202G); experiment: Ki determination, NS3 protease genotype 1b (fluorogenic depsipeptide substrate); format: biochemical; settings: 50 pM enzyme, NS4A peptide
Protocol: Purified NS3 protease domain (amino acids 1-181) of the genotype 1b and 3a virus were generated as above.
Reactions were run at room temperature in buffer consisting of 50 mM HEPES, 40% glycerol, 0.05% Triton X-100, 10 mM DTT, and 10% DMSO. The final assay solutions contained 50 pM NS3 genotype 1 b protease or 200 pM genotype 3a protease, 20 μM NS4A peptide, and 4 μM substrate (genotype 1b) or 2 μM substrate (genotype 3a). Inhibitor concentrations varied from 100 nM to 5 pM in 3-fold dilutions, and no-inhibitor controls were included.
Compound dilutions were made in DMSO at 20× final concentration. Reaction mixtures were prepared in 96-well assay plates. A solution of enzyme and NS4A peptide in assay buffer (25 μL volume with both reagents at 4× final concentration) was mixed with 45 μL assay buffer and 5 μL of either inhibitor or DMSO, and pre-incubated at room temperature for 1 hour. The reaction was started by addition of 25 μL substrate solution at 4× final concentration. Plates were mixed vigorously for 5-10 seconds and reactions were allowed to proceed for 90 minutes, fluorescence was measured every 30 s between 90 and 120 minutes reaction time using a Tecan InfiniTe M1000 or PerkinElmer Envision multimode plate reader with an excitation wavelength of 340 nm and an emission wavelength of 490 nm.
To determine the Ki, rates were plotted as a function of inhibitor concentration, and the data were fit with equation 1 (Morrison, J. F., Biochimica et Biophysica Acta 1969, 185, 269-286) to calculate Ki^app using GraphPad Prism 5. […] Ki was calculated from Ki^app/(1+[[S]/Km]).

[2] = biological target: HCV NS3 protease domain genotype 3a (Hepatitis C virus genotype 3a, UniProt Q81258); experiment: Ki determination, NS3 protease genotype 3a (fluorogenic depsipeptide substrate); format: biochemical; settings: 200 pM enzyme, NS4A peptide
HCV NS3 protease domain genotype 3a, sequence (Q81258 whole entry, looked up, the tested form may be a part): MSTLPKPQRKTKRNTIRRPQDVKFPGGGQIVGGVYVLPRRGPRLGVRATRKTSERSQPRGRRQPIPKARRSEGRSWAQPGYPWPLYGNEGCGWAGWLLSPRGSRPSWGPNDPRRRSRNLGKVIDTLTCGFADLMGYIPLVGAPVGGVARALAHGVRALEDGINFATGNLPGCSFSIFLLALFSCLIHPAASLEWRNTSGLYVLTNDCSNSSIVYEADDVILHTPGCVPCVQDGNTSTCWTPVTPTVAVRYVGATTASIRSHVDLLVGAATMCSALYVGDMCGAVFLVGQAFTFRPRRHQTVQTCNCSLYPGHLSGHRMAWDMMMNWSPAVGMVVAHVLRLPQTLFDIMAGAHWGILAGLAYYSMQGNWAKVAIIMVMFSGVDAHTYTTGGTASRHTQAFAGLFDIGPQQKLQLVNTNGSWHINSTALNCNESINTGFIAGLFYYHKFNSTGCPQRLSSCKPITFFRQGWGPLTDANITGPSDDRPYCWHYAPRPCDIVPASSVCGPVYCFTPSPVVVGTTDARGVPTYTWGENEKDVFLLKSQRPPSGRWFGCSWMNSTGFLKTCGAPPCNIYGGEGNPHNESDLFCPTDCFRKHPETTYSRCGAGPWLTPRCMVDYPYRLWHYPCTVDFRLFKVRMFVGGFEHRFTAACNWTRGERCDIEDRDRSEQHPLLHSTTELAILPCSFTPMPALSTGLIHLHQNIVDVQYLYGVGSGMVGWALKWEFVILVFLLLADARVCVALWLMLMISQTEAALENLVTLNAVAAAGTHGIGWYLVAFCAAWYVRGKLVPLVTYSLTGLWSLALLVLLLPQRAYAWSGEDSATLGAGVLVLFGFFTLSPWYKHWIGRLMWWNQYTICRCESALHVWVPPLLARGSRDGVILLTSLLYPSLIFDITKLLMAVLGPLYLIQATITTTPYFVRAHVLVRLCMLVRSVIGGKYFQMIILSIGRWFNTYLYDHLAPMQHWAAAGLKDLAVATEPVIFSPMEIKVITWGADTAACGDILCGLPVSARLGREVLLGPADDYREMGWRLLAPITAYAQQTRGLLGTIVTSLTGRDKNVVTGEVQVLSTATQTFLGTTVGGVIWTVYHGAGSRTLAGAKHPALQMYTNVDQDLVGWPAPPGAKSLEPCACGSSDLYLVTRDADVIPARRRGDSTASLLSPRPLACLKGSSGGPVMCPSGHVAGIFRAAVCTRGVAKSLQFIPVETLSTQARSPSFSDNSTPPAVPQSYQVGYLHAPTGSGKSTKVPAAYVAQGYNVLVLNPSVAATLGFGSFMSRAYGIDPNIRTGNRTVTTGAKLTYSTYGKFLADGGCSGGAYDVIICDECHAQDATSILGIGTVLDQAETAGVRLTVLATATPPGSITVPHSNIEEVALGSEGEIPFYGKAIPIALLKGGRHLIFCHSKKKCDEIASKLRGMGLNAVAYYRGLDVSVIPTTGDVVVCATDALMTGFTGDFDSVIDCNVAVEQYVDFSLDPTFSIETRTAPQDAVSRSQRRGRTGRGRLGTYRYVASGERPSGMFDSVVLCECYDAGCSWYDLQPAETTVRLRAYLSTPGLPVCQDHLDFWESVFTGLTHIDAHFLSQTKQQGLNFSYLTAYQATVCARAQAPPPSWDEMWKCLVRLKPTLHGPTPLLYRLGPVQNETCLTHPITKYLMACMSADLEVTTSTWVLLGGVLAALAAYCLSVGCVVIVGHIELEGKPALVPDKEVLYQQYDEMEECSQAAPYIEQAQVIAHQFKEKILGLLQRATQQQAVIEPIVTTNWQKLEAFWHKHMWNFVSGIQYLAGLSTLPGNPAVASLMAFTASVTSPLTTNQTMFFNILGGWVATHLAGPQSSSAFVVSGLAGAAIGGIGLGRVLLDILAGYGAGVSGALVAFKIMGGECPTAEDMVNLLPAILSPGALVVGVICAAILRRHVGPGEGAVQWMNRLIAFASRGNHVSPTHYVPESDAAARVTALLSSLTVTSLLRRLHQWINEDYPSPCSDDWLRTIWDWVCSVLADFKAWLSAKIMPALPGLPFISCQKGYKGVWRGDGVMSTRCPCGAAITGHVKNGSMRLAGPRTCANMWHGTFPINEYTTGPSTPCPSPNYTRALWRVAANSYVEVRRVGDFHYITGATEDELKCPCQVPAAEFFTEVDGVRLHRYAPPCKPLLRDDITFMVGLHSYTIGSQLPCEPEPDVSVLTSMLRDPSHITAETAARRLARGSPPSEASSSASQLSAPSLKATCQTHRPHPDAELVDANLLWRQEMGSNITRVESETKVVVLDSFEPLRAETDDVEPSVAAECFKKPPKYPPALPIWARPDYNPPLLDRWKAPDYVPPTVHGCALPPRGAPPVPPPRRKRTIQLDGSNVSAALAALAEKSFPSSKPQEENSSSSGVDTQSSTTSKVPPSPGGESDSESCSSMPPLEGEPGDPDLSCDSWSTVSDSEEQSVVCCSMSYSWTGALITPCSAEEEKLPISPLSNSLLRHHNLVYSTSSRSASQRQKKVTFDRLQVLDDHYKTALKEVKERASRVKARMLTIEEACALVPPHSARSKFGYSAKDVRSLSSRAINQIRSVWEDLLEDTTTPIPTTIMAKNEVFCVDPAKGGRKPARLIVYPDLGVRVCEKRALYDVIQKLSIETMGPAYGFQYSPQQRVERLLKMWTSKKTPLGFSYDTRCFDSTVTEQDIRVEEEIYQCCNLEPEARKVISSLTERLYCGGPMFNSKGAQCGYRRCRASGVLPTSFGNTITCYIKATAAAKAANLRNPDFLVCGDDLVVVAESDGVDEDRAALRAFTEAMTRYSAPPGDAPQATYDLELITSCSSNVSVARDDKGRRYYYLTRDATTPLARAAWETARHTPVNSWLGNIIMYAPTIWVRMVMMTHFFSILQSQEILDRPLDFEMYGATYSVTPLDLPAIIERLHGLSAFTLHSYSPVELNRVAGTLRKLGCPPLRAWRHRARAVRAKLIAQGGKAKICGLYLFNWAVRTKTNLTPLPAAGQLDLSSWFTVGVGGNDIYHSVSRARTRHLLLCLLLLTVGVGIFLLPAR
In short: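 The NS3 protease domain (aa 1-181) with 20 μM NS4A peptide was used at 50 pM with 4 μM substrate (1b) or at 200 pM with 2 μM substrate (3a). Inhibitors (100 nM-5 pM) were pre-incubated 1 h at room temperature in HEPES/glycerol/DTT buffer with 10% DMSO. Steady-state rates (90-120 min) gave Ki via the Morrison equation, corrected for active enzyme and [S]/Km.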

[3] = system: genotype 1a (H77) stable HCV replicon in Huh-7-derived cells; experiment: Stable subgenomic HCV replicon EC50, genotype 1a (Renilla luciferase); format: cell-based, hepatitis C virus; settings: stable replicon genotype 1a, 72 h, read-out: EC50 1A RLUC
In short: (§1)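 Compounds, three-fold diluted, were applied to Huh-7-derived cells harbouring luciferase replicons (genotype 1a H77, 1b Con1, 2a JFH-1, 4a ED43, with strain-specific adaptive mutations). Seventy-two hours later, intracellular replication was gauged by Renilla luciferase activity and EC50 derived by regression.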

[4] = system: genotype 1b (Con1) stable HCV replicon in Huh-7-derived cells; experiment: Stable subgenomic HCV replicon EC50, genotype 1b (Renilla luciferase); format: cell-based, hepatitis C virus; settings: stable replicon genotype 1b, 72 h, read-out: EC50 1B RLUC
In short: as §1

[5] = system: genotype 2a (JFH-1) stable HCV replicon in Huh-7-derived cells; experiment: Stable subgenomic HCV replicon EC50, genotype 2a (Renilla luciferase); format: cell-based, hepatitis C virus; settings: stable replicon genotype 2a, 72 h, read-out: EC50 2A RLUC
In short: as §1

[6] = system: genotype 3a (S52) stable HCV replicon in Huh-7-derived cells; experiment: Stable subgenomic HCV replicon EC50, genotype 3a (Renilla luciferase); format: cell-based, hepatitis C virus; settings: 72 h, read-out: EC50 3A RLUC
[7] = system: genotype 4a (ED43) stable HCV replicon in Huh-7-derived cells; experiment: Stable subgenomic HCV replicon EC50, genotype 4a (Renilla luciferase); format: cell-based, hepatitis C virus; settings: 72 h, read-out: EC50 4A RLUC
In short: as §1

[8] = system: genotype 1a (H77) wild type transient HCV replicon in Huh-7-derived cells; experiment: Transient-transfected HCV replicon EC50, genotype 1a wild type; format: cell-based, hepatitis C virus; settings: 72 h, transient-transfected replicon genotype 1a wild type, read-out: EC50 1A WT
[9] = system: genotype 1a NS3/4a protease inhibitor resistant variant R155K transient HCV replicon in Huh-7-derived cells; experiment: Transient-transfected HCV replicon EC50, genotype 1a R155K; format: cell-based, hepatitis C virus; settings: 72 h
[10] = system: genotype 1b (Con1) wild type transient HCV replicon in Huh-7-derived cells; experiment: Transient-transfected HCV replicon EC50, genotype 1b wild type; format: cell-based, hepatitis C virus; settings: 72 h, transient-transfected replicon genotype 1b wild type, read-out: EC50 1B WT
[11] = system: genotype 1b NS3/4a protease inhibitor resistant variant D168A transient HCV replicon in Huh-7-derived cells; experiment: Transient-transfected HCV replicon EC50, genotype 1b D168A; format: cell-based, hepatitis C virus; settings: 72 h
[12] = Hepatitis C virus, read-out: EC50 1A R155K, transient-transfected replicon genotype 1a R155K resistant variant, 72 h
[13] = Hepatitis C virus, read-out: EC50 1B D168A, transient-transfected replicon genotype 1b D168A resistant variant, 72 h

HCV NS3 protease domain genotype 1b, sequence (Q9WMX2 1027-1208 E1202G): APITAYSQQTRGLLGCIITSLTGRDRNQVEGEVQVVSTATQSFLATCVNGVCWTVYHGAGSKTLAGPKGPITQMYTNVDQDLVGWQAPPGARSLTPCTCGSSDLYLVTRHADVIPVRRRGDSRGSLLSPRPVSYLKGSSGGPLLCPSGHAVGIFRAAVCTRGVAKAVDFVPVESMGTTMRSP

Compound | pKi [1] | pKi [2] | pEC50 ([3]; Hepatitis C virus) | pEC50 ([4]; Hepatitis C virus) | pEC50 ([5]; Hepatitis C virus) | pEC50 ([6]; Hepatitis C virus) | pEC50 ([7]; Hepatitis C virus) | pEC50 ([8]; Hepatitis C virus) | pEC50 [9, 12] | pEC50 ([10]; Hepatitis C virus) | pEC50 [11, 13] | pEC50 [3] | pEC50 [4] | pEC50 [5] | pEC50 ([6]; stable replicon genotype 3a, Renilla luciferase) | pEC50 ([7]; stable replicon genotype 4a, Renilla luciferase) | pEC50 [8] | pEC50 ([9]; transient-transfected replicon genotype 1a R155K resistant variant, read-out: EC50 1A R155K) | pEC50 [10] | pEC50 ([11]; transient-transfected replicon genotype 1b D168A resistant variant, read-out: EC50 1B D168A)
COc1ccc2nc3c(nc2c1)O[C@H]1CN(C(=O)[C@H](C(C)(C)C)NC(=O)O[C@@H]2CCN(C(C)=O)C2CCCCC3)[C@H](C(=O)N[C@]2(C(=O)NS(=O)(=O)C3(C)CC3)C[C@H]2C(F)F)[C@@H]1C (stereo partly drawn) [Example 80, (3aR,7S,10S,11S,12R)-1-acetyl-7-tert-butyl-N-[(1R,2R)-2-(difluoromethyl)-1-{[(1-methylcyclopropyl)sulfonyl]carbamoyl}cyclopropyl]-16-methoxy-11-methyl-5,8-dioxo-1,2,3,3a,5,6,7,8,11,12,20,21,22,23,24,24a-hexadecahydro-10H-9,12-methanopyrrolo[2′,3′:18,19][1,10,3,6]dioxadiazacyclononadecino[11,12-b]quinoxaline-10-carboxamide] | 9.31 | 7.89 | 5.95 | 6.46 | 6.13 | 4.35 | 5.93 | 6.39 | 5.54 | 7.28 | 6.35 | – | – | – | – | – | – | – | – | –
COc1ccc2nc3c(nc2c1)O[C@H]1CN(C(=O)[C@H](C(C)(C)C)NC(=O)O[C@@H]2C[C@H]2CCCCC3)[C@H](C(=O)N[C@]2(C(=O)NS(=O)(=O)C3(C)CC3)C[C@H]2C(F)F)[C@@H]1CC(C)C [Example 30, (1aR,5S,8S,9S,10R,22aR)-5-tert-butyl-N-[(1R,2R)-2-(difluoromethyl)-1-{[(1-methylcyclopropyl)sulfonyl]carbamoyl}cyclopropyl]-14-methoxy-9-(2-methylpropyl)-3,6-dioxo-1,1a,3,4,5,6,9,10,18,19,20,21,22,22a-tetradecahydro-8H-7,10-methanocyclopropa[18,19][1,10,3,6]dioxadiazacyclononadecino[11,12-b]quinoxaline-8-carboxamide] | 9.85 | 9.20 | 7.26 | 7.46 | 7.33 | 5.61 | 7.51 | 7.39 | 6.53 | 7.51 | 6.30 | – | – | – | – | – | – | – | – | –
CCC[C@@H]1[C@@H]2CN(C(=O)[C@H](C(C)(C)C)NC(=O)O[C@@H]3C[C@H]3CCCCCc3nc4ccc(OC)cc4nc3O2)[C@@H]1C(=O)N[C@]1(C(=O)NS(=O)(=O)C2(C)CC2)C[C@H]1C(F)F [Example 29, (1aR,5S,8S,9S,10R,22aR)-5-tert-butyl-N-[(1R,2R)-2-(difluoromethyl)-1-{[(1-methylcyclopropyl)sulfonyl]carbamoyl}cyclopropyl]-14-methoxy-3,6-dioxo-9-propyl-1,1a,3,4,5,6,9,10,18,19,20,21,22,22a-tetradecahydro-8H-7,10-methanocyclopropa[18,19][1,10,3,6]dioxadiazacyclononadecino[11,12-b]quinoxaline-8-carboxamide] | 10.22 | 9.92 | 8.00 | 8.05 | 7.96 | 6.86 | 8.14 | 8.32 | 7.96 | 8.51 | 7.32 | – | – | – | – | – | – | – | – | –
COc1ccc2nc3c(nc2c1)O[C@H]1CN(C(=O)[C@H](C(C)(C)C)NC(=O)O[C@@H]2C[C@H]2CCCCC3)[C@H](C(=O)N[C@]2(C(=O)NS(=O)(=O)C3(C)CC3)C[C@H]2C(F)F)[C@@H]1C1CC1 [Example 31, (1aR,5S,8S,9S,10R,22aR)-5-tert-butyl-9-cyclopropyl-N-[(1R,2R)-2-(difluoromethyl)-1-{[(1-methylcyclopropyl)sulfonyl]carbamoyl}cyclopropyl]-14-methoxy-3,6-dioxo-1,1a,3,4,5,6,9,10,18,19,20,21,22,22a-tetradecahydro-8H-7,10-methanocyclopropa[18,19][1,10,3,6]dioxadiazacyclononadecino[11,12-b]quinoxaline-8-carboxamide] | 9.89 | 8.31 | – | – | – | – | – | – | – | – | – | 7.40 | 7.74 | 7.20 | 5.68 | 7.70 | 7.57 | 6.81 | 8.18 | 6.09
COc1ccc2nc3c(nc2c1)O[C@H]1CN(C(=O)[C@H](C(C)(C)C)NC(=O)O[C@@H]2[C@H]4CC[C@H](C4)[C@H]2CCCCC3)[C@H](C(=O)N[C@]2(C(=O)NS(=O)(=O)C3CC3)C[C@H]2C(F)F)[C@@H]1C [Example 26, (1R,4S,4aR,8S,11S,12S,13R,25aR)-8-tert-butyl-N-[(1R,2R)-1-[(cyclopropylsulfonyl)carbamoyl]-2-(difluoromethyl)cyclopropyl]-17-methoxy-12-methyl-6,9-dioxo-2,3,4,4a,6,7,8,9,12,13,21,22,23,24,25,25a-hexadecahydro-1H,11H-1,4:10,13-dimethanoquinoxalino[2,3-k][1,10,3,6]benzodioxadiazacyclononadecine-11-carboxamide] | 10.30 | 9.77 | 8.20 | 8.37 | 7.92 | 6.53 | 8.22 | 8.44 | 7.92 | 8.72 | 6.96 | – | – | – | – | – | – | – | – | –
COc1ccc2nc3c(nc2c1)O[C@H]1CN(C(=O)[C@H](C2(C)CCCC2)NC(=O)O[C@@H]2C[C@H]2CCCCC3)[C@H](C(=O)N[C@]2(C(=O)NS(=O)(=O)C3(C)CC3)C[C@H]2C(F)F)[C@@H]1C [Example 38, (1aR,5S,8S,9S,10R,22aR)—N-[(1R,2R)-2-(difluoromethyl)-1-{[(1-methylcyclopropyl)sulfonyl]carbamoyl}cyclopropyl]-14-methoxy-9-methyl-5-(1-methylcyclopentyl)-3,6-dioxo-1,1a,3,4,5,6,9,10,18,19,20,21,22,22a-tetradecahydro-8H-7,10-methanocyclopropa[18,19][1,10,3,6]dioxadiazacyclononadecino[11,12-b]quinoxaline-8-carboxamide] | 10.52 | 9.15 | 8.11 | 8.38 | 8.27 | 6.82 | 8.26 | 8.35 | 8.08 | 8.55 | 7.60 | – | – | – | – | – | – | – | – | –
